Results on three molecules are retold here after paper PMC5353646, “Allosteric modulation of peroxisomal membrane protein recognition by farnesylation of the peroxisomal import receptor PEX19” (Nature Communications, 2017).

Residues, ends and D or L forms follow the SMILES beside them. *: point of attachment. FITC = O=C1OC2(c3ccc(O)cc3Oc3cc(O)ccc32)c2ccc(NC(=S)*)cc21

In series [1] the target is T1, farnesylated wild type PEX19 CTD (Homo sapiens, UniProt P40855).
T1 construct: we studied the human PEX19 CTD (residues 161–299) that includes the native C-terminus; hexahistidine (TEV-cleavable) (cleaved yes); made in house; host or cells: Escherichia coli BL21 (DE3); farnesylated in vitro with recombinant S. cerevisiae farnesyl transferase
T1 sequence (P40855 161-299): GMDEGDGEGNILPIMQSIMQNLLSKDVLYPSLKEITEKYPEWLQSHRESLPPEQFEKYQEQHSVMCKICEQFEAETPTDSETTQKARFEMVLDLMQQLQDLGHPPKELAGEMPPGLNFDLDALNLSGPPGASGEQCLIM
Put plainly: Fluorescence polarization, ALDP peptide binding to farnesylated wild type PEX19 CTD. As to conditions: ratio farnesylated vs non-farnesylated wild type PEX19 CTD. As to the method:
(§1) ALDP peptide (62-AAKAGMNRVFLQRLL-76) fused N-terminally with fluorescein isothiocyanate (FITC), was purchased from Peptide Specialty Laboratories GmbH. The lyophilized powder was dissolved in 1 ml water resulting in a 5 mM stock solution. Overnight dialysis against buffer containing 50 mM Tris pH 8.0, 50 mM NaCl, removed trifluoroacetate counterions. For the determination of each binding curve a 12 point titration was performed with constant concentration of 20 nM labelled peptide with increasing concentrations of PEX19 CTD variants. Starting concentration of PEX19 CTD was 1 mM with 12 serial dilutions reaching 0.5 μM. Reaction mixtures were then transferred into 96-well Optiplate and measured as triplicates in PerkinElmer EnVision plate reader. […]
(§2) Supplementary Figure 6: ALDP af finity measurement for PEX19 CTD proteins using a fluorescence polarization assay . Polarization plots as a function of protein concentration for the direct titration of PEX19 non-farnesylated (black) and farnesylated (red) forms (wild type and residue spedific mutants) into fluorescein-labeled ALDP peptide. […]
standard deviations for triplicate measurements (n = 3).
(§3) (also on this page, place not known: assay. affinity Fluorescence polarization (mP) wt wtfarn Fluorescence polarization (mP) M179Rfarn 0.00 1.00 Fluorescence polarization (mP) M255Rfarn 0.00 1.00 Fluorescence polarization (mP) I195Kfarn Kd Kd /uni03BCM)
For orientation: Fluorescence polarisation rises when a labelled molecule tumbles more slowly, as on binding a larger partner.

A further series concerns PEX19 CTD M179R. Put plainly: Fluorescence polarization, ALDP peptide binding to PEX19 CTD M179R. Also noted: species or system human. The following applies: with or without farnesylation, FITC-labelled ALDP peptide 20 nM, triplicate (n = 3). As to the method: as §1, §2, §3
Another series concerns PEX19 CTD M255R. Put plainly: Fluorescence polarization, ALDP peptide binding to PEX19 CTD M255R. Further details: species or system human. As to conditions: with or without farnesylation, FITC-labelled ALDP peptide 20 nM, triplicate (n = 3). The procedure:
as §1, §2, §3

The next series deals with PEX19 CTD I195K. Put plainly: Fluorescence polarization, ALDP peptide binding to PEX19 CTD I195K. Further details: species or system human. The following applies: with or without farnesylation, FITC-labelled ALDP peptide 20 nM, triplicate (n = 3). As to the method:
as §1, §2, §3

Series [2] in a line: NMR 13C secondary chemical shifts (peptide conformation). Format: physicochemical. As to conditions: C-terminally extended version of the ALDP peptide with additional tryptophan (residue 68 to 82). The source says: Phe71 aromatic ring protons
Residue number Leucine residue
Supplementary Figure 8: Intermolecular NOEs between PEX19 CTD and the ALDP peptide, and secondary structure of the latter. (a) 1H,1H plane of a 3D ω1-filtered, ω2-edited 13C-NOESY-HSQC experiment of farnesylated PEX19 CTD free (black) and bound to the ALDP peptide (red). Methyl and methylene protons of the unlabeled farnesyl group of the PEX19 CTD show NOEs with protons of the isotope-labeled farnesylated PEX19 CTD (black circles). In the presence of also unlabeled ALDP peptide additional intermolecular methyl-methyl and aliphatic-aromatic NOEs are observed (red circles and below). (b) NMR 13C secondary chemical shifts of a C-terminally extended […]
tion. (c) Due to signal overlap, 5 out of 7 spin systems for leucine residues were assigned. Nevertheless, also the leucines residues adopt a helical conformation.
(also on this page, place not known: (Leu75)(Leu76) (Leu81)(Leu82) 5 LeuC Cα- Cβ [p.p.m.] Cα- Cβ [p.p.m.] c ω2 ω1 1H (p.p.m.) ω1 1H (p.p.m.) QDPro273/Pro274 { - - { 5)

Series [3] has as its system peroxisome biogenesis in cells. The following applies: ref Sacksteder et al, Gould J Cell Biol 2000; cited from earlier work. An excerpt: page 14: remnants (and this is also what can be seen in these figures). To improve clarity and avoid confusion, the authors should correct these mistakes. […] The sentence on page 9 now reads “Cells that are not complemented by functional PEX19 show a cytosolic mislocalization of the peroxisomal marker protein GFP-PTS1 and a diffuse background immunolabelling of the peroxisomal membrane protein PEX14 that is different from the peroxisomal pattern and known to be due to mislocalization to mitochondria (Fig. 5c, ΔPEX19).” Accordingly, the legend of Figure 5 ...

On to `CSCC[C@H](NC(=O)CNC(=O)[C@H](C)NC(=O)[C@H](CCCCN)NC(=O)[C@H](C)NC(=O)[C@H](C)NC(=S)Nc1ccc2c(c1)C(=O)OC21c2ccc(O)cc2Oc2cc(O)ccc21)C(=O)N[C@@H](CC(N)=O)C(=O)N[C@@H](CCCNC(=N)N)C(=O)N[C@H](C(=O)N[C@@H](Cc1ccccc1)C(=O)N[C@@H](CC(C)C)C(=O)N[C@@H](CCC(N)=O)C(=O)N[C@@H](CCCNC(=N)N)C(=O)N[C@@H](CC(C)C)C(=O)N[C@@H](CC(C)C)C(=O)O)C(C)C` [fluorescein-labeled ALDP peptide] ({FITC}-AAKAGMNRVFLQRLL-OH; C-terminus assumed), for which the “increase in affinity upon farnesylation of wild type PEX19 CTD” value in series [1] is “seven”. Also, the “binding to PEX19 CTD M179R” value in the series with PEX19 CTD M179R was “impaired binding”. In addition, the “binding to PEX19 CTD M255R” value in the series with PEX19 CTD M255R is on record as “impaired binding”. The “binding to PEX19 CTD I195K” value in the series with PEX19 CTD I195K is reported as “impaired binding”.
On to “C-terminally extended: C-terminally extended version of the ALDP peptide, which harbors an additional tryptophan (residue 68 to 82) (NRVFLQRLLWLLRLL; UniProt P33897 68-82, looked up, fragment)”, for which the “helical conformation of free peptide” value in series [2] is given as “largely helical conforma”.

B1: PEX19/C296A: human PEX19 with a mutation of the farnesylation site (Sacksteder et al) (protein, UniProt P40855 2-296, looked up, variant C296A)
Peroxisomal biogenesis factor …: AAAEEGCSVGAEADRELEELLESALDDFDKAKPSPAPPSTTTAPDASGPQKRSPGDTAKDALFASQEKFFQELFDSELASQATAEFEKAMKELAEEEPHLVEQFQKLSEAAGRVGSDMTSQQEFTSCLKETLSGLAKNATDLQNSSMSEEELTKAMEGLGMDEGDGEGNILPIMQSIMQNLLSKDVLYPSLKEITEKYPEWLQSHRESLPPEQFEKYQEQHSVMCKICEQFEAETPTDSETTQKARFEMVLDLMQQLQDLGHPPKELAGEMPPGLNFDLDALNLSGPPGASGEQA
With B1, the “functional complementation, % of the activity of wild-type PEX19” value in series [3] was ~80%.
